According to US9980963B2, “Treatment of cancer with dihydropyrazino-pyrazines” (Signal Pharmaceuticals, LLC, priority 2013, dated 2018):
“Also recorded” adds a separate entry of the source.

Columns and labels:
Type in all cases: cell-based, human
[1] = tested on: IGVH unmutated CLL cells; experiment: CLL patient cells apoptosis assay (DioC6/PI); conditions: 48 hours; FIGS. 2B, F
Source text: (§1) CLL Patient Cells Apoptosis Assay. Patient material ([…] blood) was obtained from CLL patients (diagnosed according to the NCI-WG guidelines) after routine follow-up or diagnostic procedures at the department of hematology of the Academic Medical Center Amsterdam. Peripheral blood mononuclear cells (PBMCs) were isolated by Ficoll density gradient centrifugation and stored in liquid nitrogen, as cell suspension in heat-inactivated fetal calf serum containing 10% DMSO. During all in vitro experiments, cells were maintained in culture medium: Iscove's modified Dulbecco medium supplemented with 10% heat-inactivated FCS, 100 U/mL penicillin, […] gentamycin and 0.00036% β-mercaptoethanol. All samples contained at least 90% CD5+/CD19+ cells as assessed via flow cytometry. B-CLL cells were thawed and diluted to a concentration of 1.10^6 cells/mL in IMDM plus supplements as described above. […] Apoptosis was analyzed by evaluation of mitochondrial membrane potential with DioC6 (Molecular probes). Cells were incubated with 10 nM DioC6 for 30 minutes at 37° C. and 20 μg/mL propidium iodide was added to measure cell death. Expression of DioC6 was determined using the FACSCalibur flow cytometer and CellQuest software was used for data acquisition. Data were analyzed with FlowJo software (TreeStar, San Carlos, Calif., USA).

[2] = tested on: IGVH mutated CLL cells; experiment: CLL patient cells apoptosis assay (DioC6/PI); conditions: 48 hours; FIGS. 2A, E
Source text: as §1

[3] = tested on: P53 mutated CLL cells; experiment: CLL patient cells apoptosis assay (DioC6/PI); conditions: 48 hours, FIGS. 2C
Source text: as §1

[4] = tested on: ATM mutated CLL cells; experiment: CLL patient cells apoptosis assay (DioC6/PI); conditions: 48 hours; FIGS. 2D, G
Source text: Patient material (pheripheral blood) was obtained from CLL patients (diagnosed according to the NCI-WG guidelines) after routine follow-up or diagnostic procedures at the department of hematology of the Academic Medical Center Amsterdam. Peripheral blood mononuclear cells (PBMCs) were isolated by Ficoll density gradient centrifugation and stored in liquid nitrogen, as cell suspension in heat-inactivated fetal calf serum containing 10% DMSO. During all in vitro experiments, cells were maintained in culture medium: Iscove's modified Dulbecco medium supplemented with 10% heat-inactivated FCS, 100 U/mL penicillin, 100 m/mL gentamycin and 0.00036% β-mercaptoethanol. All samples contained at least 90% CD5+/CD19+ cells as assessed via flow cytometry. […] Apoptosis was analyzed by evaluation of mitochondrial membrane potential with DioC6 (Molecular probes). Cells were incubated with 10 nM DioC6 for 30 minutes at 37° C. and 20 μg/mL propidium iodide was added to measure cell death. Expression of DioC6 was determined using the FACSCalibur flow cytometer and CellQuest software was used for data acquisition.

[5] = tested on: Bim; experiment: Bim protein Western blot in CD40L-cocultured CLL cells; conditions: CD40L coculture; 1 μM, 3 days
Description: (§2) FIG. 7A) Apoptosis was assessed by DiOC6/PI staining and results are shown as mean±SEM (n=7). *0.01≤P<0.05; **0.001≤P<<0.01; ***P<0.001 (paired T test). FIG. 7B) After 3 days, fludarabine sensitivity assay was performed. Apoptosis was assessed by DiOC6/PI staining and specific apoptosis are shown as mean±SEM (n=7). *0.01≤P<0.05; **0.001≤P<0.01 (paired T test) FIG. 7C) mRNA levels of pro-/anti-apoptotic mediators in CLL cells were measured by RT-MLPA (n=6). FIG. 7D) Protein lysates were probed for Bim and actin for loading control. Blots from two representative CLL samples shown, of a total of four analyzed.
Western blot analysis was performed using standard techniques [Hallaert et al. Blood 2008(112):5141-5149]. Samples (50 μg protein) were separated by 13% SDS-PAGE gel electrophoresis. Membranes were probed with anti-p-S6, p-4EBP1, p-Akt (Thr308), p-Akt (Ser473) (Cell Signaling), Bim (Stressgen Bioreagents Canada) and antiserum to β-actin (Santa Cruz Biotechnology) as loading control. Blots were subsequently incubated with IRDye 680 or 800 labelled secondary antibodies for 1 hour. Odyssey Imager (Li-Cor Biosciences) was used as a detection method according to the manufacturer's protocol. For the p-DNA-PK western blot, cells were lysed in RIPA sample buffer and sonificated. Samples (50 μg protein) were separated by mini protean TGX gels (Biorad). […]

[6] = tested on: primary CLL cells; experiment: BCR-mediated adhesion of primary CLL cells to fibronectin; conditions: 1 μM pretreatment; IgVH unmutated samples; n=5
Description: Graphs are presented as normalized mean±SEM (100%=stimulated cells without inhibitors). *0.01≤P<0.05; **0.001≤P<0.01 (paired one sample T test) (n=5). BCR-mediated adhesion of primary CLL cells (FIG. 4) was tested.

[7] = tested on: mRNA of pro-/anti-apoptotic mediators in CLL cells; experiment: RT-MLPA of pro- and anti-apoptotic regulators; conditions: 1 μM, 24 hours
Description: Reverse Transcription-Multiplex Ligation-Dependent Probe Amplification Assay.
CLL Cells were harvested per stimulation, washed with PBS, resuspended in RNA lysis buffer (Qiagen, Venlo, the Netherlands) and stored at −80° C. RNA was isolated using the GenElute Mammalian Total RNA Miniprep kit (Sigma-aldrich). The concentration and purity of the RNA were determined with a NanoDrop spectrophotometer ND-1000 (NanoDrop Technologies, Willington, USA). Reverse transcription-multiplex ligation-dependent probe amplification assay (RT-MLPA) procedure was performed as described previously by Eldering et al. Nucleic Acids Res. 2003; 31:e153. In brief, 40-60 ng of total RNA of samples were first reverse transcribed using a gene-specific probe mix (R016-X2). The resulting cDNA was annealed overnight at 60° C. to the MLPA probes. The annealed oligonucleotides were covalently linked by Ligase-65 (MRC, Amsterdam, the Netherlands) at 54° C. […] Results were analyzed using the programs Genescan analysis and Genotypes (Applied Biosystems). Data was further analyzed with Microsoft Excel Spreadsheet software. Normalization was performed by setting the sum of all data per sample at 100% and individual peaks were calculated relative to the 100% value.

[8] = tested on: del(11q) CLL cells; experiment: Compound toxicity assay for CLL patient cells (del(11q)); conditions: single agent; feeder layer of CD40 ligand-expressing NIH 3T3 cells; FIG. 1B
[9] = tested on: CLL cells; experiment: Blast cell formation of CD40L-cocultured CLL cells (FACS); conditions: CD40L coculture; 1 μM, 3 days
Description: FIG. 6A and FIG. 6B) Blast cell formation was assessed by FACS analysis and results are shown as mean±SEM. *0.01≤P<0.05; **0.001≤P<0.01; ***P<0.001 (paired one sample T test) FIG. 6C) CLL cells were examined for surface expression of CD95 (Fas), CD44, CD54 (ICAM) and CD58 (LFA-3) by flow cytometry. Results are shown as mean±SEM (n=6).

[10] = tested on: p-S6, p-4EBP1, p-Akt (Ser473); experiment: Western blot of mTOR pathway, CD40L-activated CLL cells; conditions: 100, 500 or 1000 nM, 72 hours
Description: (§3) Protein lysates were probed for phospho-S6 and actin for loading control. Blots from three representative CLL samples are shown, of a total of five analyzed. […] Blots were probed for p-Akt(Thr308), p-Akt (Ser473), p-S6, p-4EBP1 and actin for loading control. Blots from two representative CLL samples shown, of a total of four analyzed.
(§4) Western blot analysis was performed using standard techniques [Hallaert et al. Blood 2008(112):5141-5149]. Samples (50 μg protein) were separated by 13% SDS-PAGE gel electrophoresis. Membranes were probed with anti-p-S6, p-4EBP1, p-Akt (Thr308), p-Akt (Ser473) (Cell Signaling), Bim (Stressgen Bioreagents Canada) and antiserum to β-actin (Santa Cruz Biotechnology) as loading control. Blots were subsequently incubated with IRDye 680 or 800 labelled secondary antibodies for 1 hour. Odyssey Imager (Li-Cor Biosciences) was used as a detection method according to the manufacturer's protocol. For the p-DNA-PK western blot, cells were lysed in RIPA sample buffer and sonificated. Samples (50 μg protein) were separated by mini protean TGX gels (Biorad). Transfer onto Immobilon-FL transfer membrane (Millipore) in 1× transfer buffer, 20% MeOH at 30 volts at 4° C. overnight. The following antibodies were used: p-DNA-PK (Ser2056) (Abcam), KAP (TIF1β), phosphorylated-KAP (phospho-TIF1β-ser824; Cell Signalling) and β-actin (Santa Cruz).

[11] = tested on: CLL cells; experiment: CD40L coculture survival and fludarabine sensitivity assay (DiOC6/PI)
Description: as §2
CD40 stimulation inhibits spontaneous cell death as previously reported [Burger et al. Blood 2009(114):2560-2561]. Lymphocytes of CLL patients were stimulated by coculture with NIH3T3 fibroblasts stably transfected with human CD40L or negative control plasmid (3T3) as described before [Pascutti et al Blood 2013 2013; 122(17):3010-9]. […] After 72 hours of culture, CLL cells were detached and either used for flowcytrometic analyses or subsequently incubated with or without Fludarabine (Sigma) for an additional 48 hours. CLL cell viability was measured as by DiOC6/PI staining as described above. […] CD40L stimulation induces resistance to cytotoxic agents, including fludarabine [Kater et al. Brit J Haematology 2004; 127:404-415].

[12] = tested on: CLL cells; experiment: Detection of apoptosis with QvD or NAC co-treatment (DiOC6/PI); conditions: 5 mM NAC, 48 hours
Description: Apoptosis levels were measured by Flow using DiOC6/PI staining and specific apoptosis was calculated. Results are shown as mean±SEM.
Where indicated, CLL cells were co-cultured in the presence/absence of 20 μM of the pancaspase inhibitor QvD or 5 mM N-acetyl-L-cysteine (NAC). CLL cell viability was measured by analysis of mitochondrial transmembrane potential by 3,3-dihexyloxocarbocyanine iodine (DiOC6; Invitrogen/Molecular Probes) and cell membrane permeability to propidium iodide (PI; Sigma Aldrich) using the FACS Calibur flow cytometer. Specific apoptosis is defined as [% cell death in drug treated cells]−[% cell death in medium control]/[% viable cells medium control]×100 using the Graphpad Prism software (Graphpad Prism 5.0, La Jolla, USA).

[13] = tested on: BIM and BID mRNA; experiment: RT-MLPA in CD40L triggered CLL cells; conditions: 1 μM, 3 days
Description: as §2

[14] = tested on: Wildtype CLL cells; experiment: Compound toxicity assay for CLL patient cells (wildtype); conditions: FIG. 1A; for sensitivity of wildtype CLL cells to the compound: single agent, feeder layer of CD40 ligand-expressing NIH 3T3 cells
[15] = tested on: CLL cells; experiment: CFSE proliferation assay of CLL cells on 3T40L cells with IL-21; conditions: CD40L + IL-21 (25 ng/ml); 1 μM, 4 days
Description: After 4 days, CFSE was measured by FACS. […] FIG. 8B) Division index was calculated with FlowJo program. […] PBMC (1.0×10^7/mL) were labelled with 0.5 μM carboxyfluorescein diacetate succinimidyl ester (CFSE, Molecular Probes) as described before [Pascutti et al Blood 2013 2013; 122(17):3010-9]. […] After 4 days, proliferation was assessed in a FACS Canto (BD Biosciences) and analyzed with FlowJosoftware (TreeStar, Ashland, Oreg.).

[16] = tested on: phospho-S6; experiment: Western blot of mTOR pathway, unstimulated CLL cells; conditions: 1 μM, 2 hours
Description: as §3, §4

[17] = tested on: CD95, CD54, CD58, CD44 on CLL cells; experiment: Expression of cell surface markers (flow cytometry); conditions: CD40L coculture; 1 μM, 3 days
Description: Expression of Cell Surface Markers.
Cells were washed and resuspended in staining media (phosphate-buffered saline (PBS) containing 0.5% (wt/vol) bovine serum albumin (BSA)). For analysis of expression of cell surface markers, different combinations of antibodies were used. CD54-PE and CD95-FITC purchased from Pharmingen. CD44-Alexa Fluor 700 was obtained from eBiosciences and CD58 from Immunotech. After incubation for 30 minutes at 4° C. protected from light, cells were washed twice in PBS/0.5% BSA and expression of cell surface markers was analyzed using FACSCalibur flow cytometry.

**Q.** What does the source list for `CCN1C(=O)CNc2ncc(-c3ccc(-c4nc[nH]n4)nc3C)nc21` [Compound 1, 1-ethyl-7-(2-methyl-6-(1H-1,2,4-triazol-3-yl)pyridin-3-yl)-3,4-dihydropyrazino[2,3-b]pyrazin-2(1H)-one]?
**A.** induction of apoptosis [1]: induced apoptosis; induction of apoptosis [2]: induced apoptosis; induction of apoptosis [3]: induced apoptosis; induction of apoptosis [4]: induced apoptosis; CD40-mediated decreased expression of Bim protein [5]: blocked; anti-IgM-stimulated integrin-mediated adhesion to fibronectin [6]: strongly inhibited; levels of pro- and anti-apoptotic regulators on RNA level, including p53-target genes [7]: not altered; sensitivity of del(11q) CLL cells to the compound [8]: exclusively sensitive; blast-like appearance / blast cell formation [9]: completely blocked; p-4EBP1 upregulation [10]: completely blocked; p-Akt (Ser473) upregulation [10]: completely blocked; p-S6 upregulation [10]: completely blocked; fludarabine sensitivity ([11]; 72 hours CD40L coculture, then fludarabine 48 hours): partly reversed; CD40L-induced survival ([11]; CD40L coculture, 1 μM, 3 days): inhibited; CD40-induced fludarabine resistance ([11]; co-treatment with Compound 1 during CD40L coculture, then fludarabine 48 hours): completely abolished; ROS dependence of cell death: effect of NAC co-treatment on cell death [12]: did not result in inhibition; CD40-mediated inhibition of BIM (RNA) [13]: blocked; upregulation of BID (RNA) [13]: decreased; enhancement of response by addition of Compound 1 to the etoposide regimen ([14]; combination with etoposide, ATM-proficient CLL cells): did not significantly enhance; sensitivity of wildtype CLL cells to the compound [14]: resistant; proliferation of CLL cells [15]: completely blocks; also recorded: fully blocked; phosphorylation of S6 [16]: completely blocked; 3T40L-induced upregulation of immune accessory molecules (CD95, CD54, CD58, CD44) [17]: significant inhibition

**Q.** How did the “sensitivity of del(11q) CLL cells to the compound” value [8] turn out when `COc1cc([C@@H]2c3cc4c(cc3[C@@H](O[C@@H]3O[C@@H]5CO[C@@H](C)O[C@H]5[C@H](O)[C@H]3O)[C@H]3COC(=O)[C@H]23)OCO4)cc(OC)c1O` [etoposide, reference compound] was run?
**A.** largely resistant

**Q.** What about the “sensitivity of wildtype CLL cells to the compound” value [14] of the same compound?
**A.** highly sensitive
